Where only a bound is given, the exact number is not on record here.

Our source for the IC50 values is patent publication US9199981B2 (NOVARTIS AG, priority 2011, dated 2015).

Chain of c-kit (P10721 26-976): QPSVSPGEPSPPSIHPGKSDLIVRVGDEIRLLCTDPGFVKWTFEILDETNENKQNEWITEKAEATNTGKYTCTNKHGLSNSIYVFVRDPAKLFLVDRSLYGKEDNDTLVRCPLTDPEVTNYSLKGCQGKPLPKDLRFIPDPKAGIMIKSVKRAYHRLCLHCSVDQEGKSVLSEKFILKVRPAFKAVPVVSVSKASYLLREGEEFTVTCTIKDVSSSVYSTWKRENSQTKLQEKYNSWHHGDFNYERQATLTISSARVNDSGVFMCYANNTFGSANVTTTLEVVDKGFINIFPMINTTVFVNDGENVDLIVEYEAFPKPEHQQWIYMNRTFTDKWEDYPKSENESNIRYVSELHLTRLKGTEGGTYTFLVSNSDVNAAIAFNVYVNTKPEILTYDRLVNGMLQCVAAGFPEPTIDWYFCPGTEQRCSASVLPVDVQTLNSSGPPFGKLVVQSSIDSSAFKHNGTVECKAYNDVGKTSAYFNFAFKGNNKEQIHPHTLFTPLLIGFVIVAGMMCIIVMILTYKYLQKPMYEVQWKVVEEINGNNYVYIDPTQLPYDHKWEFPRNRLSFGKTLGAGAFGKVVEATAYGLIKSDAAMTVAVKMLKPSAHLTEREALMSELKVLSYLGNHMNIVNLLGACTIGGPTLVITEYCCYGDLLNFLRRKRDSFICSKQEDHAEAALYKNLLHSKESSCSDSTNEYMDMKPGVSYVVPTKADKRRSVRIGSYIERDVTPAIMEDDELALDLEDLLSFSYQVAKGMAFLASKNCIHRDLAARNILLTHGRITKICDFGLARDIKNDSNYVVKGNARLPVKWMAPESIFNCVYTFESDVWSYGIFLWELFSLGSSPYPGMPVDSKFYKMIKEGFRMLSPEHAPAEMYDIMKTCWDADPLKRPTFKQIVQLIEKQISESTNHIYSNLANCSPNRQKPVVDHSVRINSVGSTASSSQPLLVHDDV

One test concerns the target c-kit (Homo sapiens (Human), UniProt P10721). Briefly: Mo7e cell proliferation assay (SCF dependent proliferation). Type of test: cell-based. To be noted: Mo7e cells stimulated with human recombinant SCF, 48 hours, 1% FBS. As to the method: Compounds of Formula (I) and Formula (II) provided herein were assayed to measure their capacity to inhibit c-kit and PDGFR kinases using the appropriate assay described below: c-Kit inhibition was evaluated using the Mo7e cell proliferation assay, and PDGFR inhibition was evaluated using the Rat A10 cell proliferation assay and the Human TG/HA-VSMC cell proliferation assay.
Mo7e Cell Proliferation Assay
The compounds of Table 1 and Table 2 were tested for inhibition of SCF dependent proliferation using human Mo7e cells which endogenously express c-kit in a 384 well format. […] After 48 hours of incubation at 37° C., cell viability was measured by adding 25 uL of CellTiter Glo (Promega) to the cells and the luminescence was measured by a CLIPR CCD camera (Molecular Devices).
The IC50 value is given as that concentration of the test compound in question that provoke a response halfway between the baseline and maximum responses.
As for `Cc1ccc(-c2noc(C3CC(F)(F)C3)n2)cc1NC(=O)c1cnc2ccc(CO)cn12` [F37, N-(5-(5-(3,3-difluorocyclobutyl)-1,2,4-oxadiazol-3-yl)-2-methylphenyl)-6-(hydroxymethyl)imidazo[1,2-a]pyridine-3-carboxamide], the IC50 (in general, the concentration that inhibits the measured activity by half) amounted to 60 nM. As for `Cc1ccc(-c2noc([C@H]3C[C@@H](N4CCOCC4)C3)n2)cc1NC(=O)c1cnc2ccccn12` [F124], the IC50 was 257 nM. Same read-out and setting: in the case of `Cc1ccc(-c2noc(C3CC(n4cncn4)C3)n2)cc1NC(=O)c1cnc2ccccn12` (stereo not shown) [F150] it was 167 nM. Same read-out and setting: to `Cc1ccc(-c2noc(C3CC(O)(C4CC4)C3)n2)cc1NC(=O)c1cnc2ccccn12` (stereo not shown) [F31, N-(5-(5-(3-cyclopropyl-3-hydroxycyclobutyl)-1,2,4-oxadiazol-3-yl)-2-methylphenyl)imidazo[1,2-a]pyridine-3-carboxamide] belongs 50 nM; to `Cc1ccn2c(C(=O)Nc3cc(-c4noc(COC5CC(F)(F)C5(F)F)n4)ccc3C)cnc2c1` (stereo not shown) [F102], 9 nM. In the case of `Cc1ccc(-c2noc(C3CC(F)(F)C3)n2)cc1NC(=O)c1cnc2cc(N3CCOC3=O)ccn12` [F68], the IC50 was found to be 39 nM. Still for that read-out and setting: in the case of `Cc1ccc(-c2noc(CNC(=O)OC3(C)CC3)n2)cc1NC(=O)c1cnc2ccccn12` [F26] it was 58 nM. Still for that read-out and setting: in the case of `Cc1ccc(-c2noc(C3CC(F)(F)C3)n2)cc1NC(=O)c1cnc2cc(CC(C)(C)O)ccn12` [F155] it was 390 nM; in that of `Cc1ccc(-c2noc(C3CC(F)(F)C3)n2)cc1NC(=O)c1cnc2ccc(CC(C)(C)O)cn12` [F153], 165 nM.

Take `COCCOCc1ccc2ncc(C(=O)Nc3cc(-c4noc(C5CC(F)(F)C5)n4)ccc3C)n2c1` [F146]: the IC50 was 105 nM.

For `COC(=O)NC1(c2nc(-c3ccc(C)c(NC(=O)c4cnc5ccccn45)c3)no2)CC1` [F24], the 50% inhibitory concentration (IC50) stood at 58 nM.

As for `C=C1CC(c2nc(-c3ccc(F)c(NC(=O)c4cnc5ccccn45)c3)no2)C1` [F138], the IC50 was 103 nM. Consider `Cc1ccc(-c2noc(C3CC(F)(F)C3)n2)cc1NC(=O)c1cnc2ccc(CN3CCN(C)CC3)cn12` [F144], for which the half-inhibitory concentration (IC50) was 249 nM. The same measure, in the same setting: in the case of `Cc1nnc(-c2ccc3ncc(C(=O)Nc4cc(-c5noc(C6CC(F)(F)C6)n5)ccc4C)n3c2)[nH]1` [F79, N-(5-(5-(3,3-difluorocyclobutyl)-1,2,4-oxadiazol-3-yl)-2-methylphenyl)-6-(5-methyl-1H-1,2,4-triazol-3-yl)imidazo[1,2-a]pyridine-3-carboxamide] it was 55 nM; in that of `Cc1ccc(-c2noc(C3CC3(F)F)n2)cc1NC(=O)c1cnc2ccc(COCC(F)(F)F)cn12` (stereo not shown) [F85], 69 nM; in that of `Cc1ccc(-c2noc(C3CC(=O)C3)n2)cc1NC(=O)c1cnc2ccccn12` [F121], 140 nM. Still for that read-out and setting: to `Cc1ccc(-c2noc(C3CC(=NOC(C)C)C3)n2)cc1NC(=O)c1cnc2ccccn12` (stereo not shown) [F16] belongs 66 nM; to `Cc1ccc(-c2noc(C3CC(=NOCCN4CCOCC4)C3)n2)cc1NC(=O)c1cnc2ccccn12` (stereo not shown) [F126], 213 nM. Still for that read-out and setting: in the case of `Cc1ccc(-c2noc(C3CC(F)(F)C3)n2)cc1NC(=O)c1cnc2ccc(CN3CCN(CCO)CC3)cn12` [F145] it was 238 nM; in that of `Cc1ccc(-c2noc(C3CC(F)(F)C3)n2)cc1NC(=O)c1cnc2cc(OC(F)F)ccn12` [F149], 378 nM. `Cc1ccc(-c2noc(C3(NS(C)(=O)=O)CCC3)n2)cc1NC(=O)c1cnc2ccccn12` [F28]: the half-maximal inhibitory concentration (IC50) was found to be 95 nM. As for `Cc1ccc(-c2noc(C3CC(F)(F)C3)n2)cc1NC(=O)c1cnc2ccc(-c3ccn(C)n3)cn12` [F43], the IC50 came out at 12 nM.

As for `Cc1ccc(-c2noc(C3CCC3)n2)cc1NC(=O)c1cnc2ccc(COCC(F)(F)F)cn12` [F86], the IC50 turned out to be 49 nM. For the molecule `CON=C1CC(c2nc(-c3ccc(C)c(NC(=O)c4cnc5ccccn45)c3)no2)C1` (stereo not shown) [F7, N-(5-(5-(3-(methoxyimino)cyclobutyl)-1,2,4-oxadiazol-3-yl)-2-methylphenyl)imidazo[1,2-a]pyridine-3-carboxamide], the IC50 came to 15 nM.

Take `COCC(=O)NC1(c2nc(-c3ccc(C)c(NC(=O)c4cnc5ccccn45)c3)no2)CC1` [F132]: the IC50 is 554 nM.

As to `Cc1ccc(-c2noc(CNC(=O)C3CC3(F)F)n2)cc1NC(=O)c1cnc2ccccn12` (stereo not shown) [F140], the IC50 amounted to 132 nM. Still for that read-out and setting: to `Cc1ccc(-c2noc(C3CC4(C3)OC[C@@H](C)O4)n2)cc1NC(=O)c1cnc2ccccn12` (stereo partly shown) [F9] belongs 52 nM; to `Cc1ccc(-c2noc([C@H]3C[C@H](NS(C)(=O)=O)C3)n2)cc1NC(=O)c1cnc2ccccn12` [F129], 143 nM. Same read-out and setting: in the case of `Cc1ccc(-c2noc(C3CC(F)(F)C3)n2)cc1NC(=O)c1cnc2ccc(-n3ccnc3)cn12` [F82] it was 78 nM; in that of `Cc1ccc(-c2noc(C3CC(F)(F)C3)n2)cc1NC(=O)c1cnc2ccc(CCC(C)(C)O)cn12` [F54, N-(5-(5-(3,3-difluorocyclobutyl)-1,2,4-oxadiazol-3-yl)-2-methylphenyl)-6-(3-hydroxy-3-methylbutyl)imidazo[1,2-a]pyridine-3-carboxamide], 31 nM. As for `[2H]C([2H])([2H])O[C@H]1C[C@@H](c2nc(-c3ccc(C)c(NC(=O)c4cnc5ccccn45)c3)no2)C1` [F19], the half-maximal inhibitory concentration (IC50) stood at 9 nM. The same measure, in the same setting: to `Cc1ccc(-c2noc(C3CC3)n2)cc1NC(=O)c1cnc2ccccn12` [F104] belongs 57 nM; to `Cc1ccc(-c2noc(C3CC(F)(F)C3)n2)cc1NC(=O)c1cnc2ccc(COCC(F)(F)F)cn12` [F52], 79 nM; to `Cc1ccc(-c2noc(C3CC(F)(F)C3)n2)cc1NC(=O)c1cnc2ccc(CCC(=O)O)cn12` [F171], more than 10000 nM.

Consider `Cc1ccc(-c2noc([C@H]3C[C@@H](N4CCCCC4)C3)n2)cc1NC(=O)c1cnc2ccccn12` [F123], for which the IC50 came out at 345 nM. Take `Cc1ccc(-c2noc(C3CC(O)(C(F)(F)F)C3)n2)cc1NC(=O)c1cnc2ccccn12` (stereo not shown) [F25, N-(5-(5-(3-hydroxy-3-(trifluoromethyl)cyclobutyl)-1,2,4-oxadiazol-3-yl)-2-methylphenyl)imidazo[1,2-a]pyridine-3-carboxamide]: the IC50 stood at 13 nM. On to `Cc1cc(C)c(-c2noc(C3CC(F)(F)C3)n2)cc1NC(=O)c1cnc2ccccn12` [F67], for which the 50% inhibitory concentration (IC50) turned out to be 49 nM. As to `Cc1ccc(-c2noc(C3CC(F)(F)C3)n2)cc1NC(=O)c1cnc2ccc(-c3cnn(C)c3)cn12` [F42], the concentration for half-maximal inhibition (IC50) stood at 7 nM.

Staying with this test, now noted: Mo7e cells stimulated with human recombinant SCF, 48 hours, 20% FBS (values marked *).
As to `Cc1ccc(-c2noc(C3CC(=O)C3)n2)cc1NC(=O)c1cnc2ccccn12` [F11], the IC50 is 41 nM.

Take `Cc1ccc(-c2noc(C3CC(C)(O)C3)n2)cc1NC(=O)c1cnc2ccccn12` (stereo not shown) [F116]: the IC50 came out at 182 nM.
